This is an account of results in patent publication US20160083400A1, “TRICYCLIC GUANIDINE DERIVATIVE” (Sunovion Pharmaceuticals Inc., priority 2014, published 2016).

This experiment deals with PDE1B (Homo sapiens, UniProt Q01064). As to the kind of experiment: In vitro HTRF PDE1 inhibition assay (PDE1B). Format: biochemical. The settings on record: 100 nM cyclic GMP, calmodulin, 45 minutes at 37° C.
Sequence of PDE1B (Q01064 whole entry): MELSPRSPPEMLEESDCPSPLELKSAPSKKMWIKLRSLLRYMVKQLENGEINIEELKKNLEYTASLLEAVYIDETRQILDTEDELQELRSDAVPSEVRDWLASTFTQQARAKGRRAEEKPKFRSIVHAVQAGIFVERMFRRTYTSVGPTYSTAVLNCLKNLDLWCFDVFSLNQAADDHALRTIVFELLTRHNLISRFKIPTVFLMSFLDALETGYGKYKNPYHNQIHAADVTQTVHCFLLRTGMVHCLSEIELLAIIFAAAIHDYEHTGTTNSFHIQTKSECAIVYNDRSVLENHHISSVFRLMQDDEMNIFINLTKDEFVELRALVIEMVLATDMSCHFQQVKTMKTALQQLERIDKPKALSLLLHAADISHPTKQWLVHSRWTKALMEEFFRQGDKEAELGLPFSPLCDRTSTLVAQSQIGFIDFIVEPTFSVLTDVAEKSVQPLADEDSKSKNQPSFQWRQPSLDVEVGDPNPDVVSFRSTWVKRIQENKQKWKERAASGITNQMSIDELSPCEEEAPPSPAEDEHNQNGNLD
Regarding `O=c1c2cnc(C3CCCC3)n2nc2n1CC[C@@H](c1ccc(Cl)cc1)N2` [Example 62], the IC50 (commonly the concentration needed to halve the response being measured) is below 1 µM. Then `C[C@H](O)c1ncc2c(=O)n3c(nn12)N[C@@H](c1ccc(Cl)cc1)CC3` [Example 249], with 1 to 10 µM; and `O=c1c2cnc(C3CCC3)n2nc2n1CCC(c1ccc(Cl)cc1)N2` (stereo not shown) [Example 63], with below 1 µM; and `COC(C)(C)c1ncc2c(=O)n3c(nn12)N[C@@H](c1ccc(Cl)cc1)CC3` [Example 240], with below 1 µM.

On to `O=c1c2cnn(C3CCC3)c2nc2n1CCC(c1ccc(Cl)cc1)N2` (stereo not shown) [Example 44], for which the IC50 is below 1 µM. For `N#Cc1ccc(C2CCn3c(nc4c(C5CCOCC5)onc4c3=O)N2)cc1` (stereo not shown) [Example 156], the IC50 lay in the range of 10 to 100 µM. Molecule `COc1cncc([C@H]2CCn3c(nn4c(C5CCCC5)ncc4c3=O)N2)c1` [Example 130] showed an IC50 below 1 µM. Turning to `CCCn1ncc2c(=O)n3c(nc21)NC(c1ccc(Cl)cc1)CC3` (stereo not shown) [Example 35], the IC50 is below 1 µM. `O=c1c2cnc(CO)n2nc2n1CC[C@H](c1ccc(Cl)cc1)N2` [Example 237]: the IC50 was in the range of 1 to 10 µM. The same measure for `O=c1c2cnc(C3CCNCC3)n2nc2n1CCC(c1ccc(Cl)cc1)N2` (stereo not shown) [Example 253, 2-(4-Chlorophenyl)-9-(4-piperidinyl)-1,2,3,4-tetrahydro-6H-imidazo[5,1-f]pyrimido[2,1-c][1,2,4]triazin-6-one]: 1 to 10 µM.

On to `O=c1c2cnc(C3CCOCC3)n2nc2n1CC(c1ccc(F)nc1)N2` (stereo not shown) [Example 184], for which the IC50 was in the range of 1 to 10 µM. Then `COc1ccc(C2CCn3c(nn4c(C(C)C)ncc4c3=O)N2)cc1` (stereo not shown) [Example 54], with below 1 µM; and `O=c1c2cnc(C3CCOCC3)n2nc2n1CCC(Cc1ccc(Cl)cc1)N2` (stereo not shown) [Example 59], with below 1 µM. Then `COc1cccc(C2CCn3c(nc4c(cnn4C4CCCC4)c3=O)N2)c1` (stereo not shown) [Example 5], with 10 to 100 µM; and `O=c1c2cnc(C3CCOCC3)n2nc2n1CCC1(CCCc3ccccc31)N2` (stereo not shown) [Example 180], with 1 to 10 µM; and `Cc1ccc(C2CCn3c(nc4c(cnn4C(C)C)c3=O)N2)cn1` (stereo not shown) [Example 12], with 1 to 10 µM. `N#Cc1ccc(C2Cn3c(nc4c(cnn4C4CCOCC4)c3=O)N2)cc1` (stereo not shown) [Example 86, 4-[4-Oxo-1-(tetrahydro-2H-pyran-4-yl)-4,6,7,8-tetrahydro-1H-imidazo[1,2-a]pyrazolo[3,4-d]pyrimidin-7-yl]benzonitrile] had an IC50 below 1 µM. Molecule `O=c1c2cnc(C3CCCC3)n2nc2n1CCC(c1ccc(Cl)cc1)N2` (stereo not shown) [Example 60] registered an IC50 below 1 µM. `COc1cccc([C@@H]2CCn3c(nn4c(C5CCOCC5)ncc4c3=O)N2)c1` [Example 129]: the IC50 was below 1 µM. The same measure for `O=c1c2cnc(C3CCOCC3)n2nc2n1CC(c1ccc(Cl)nc1)N2` (stereo not shown) [Example 183]: below 1 µM; for `O=c1c2cnn(C3CCOCC3)c2nc2n1C[C@@H](c1ccc(Cl)cc1)N2` [Example 147]: 1 to 10 µM.

`O=c1c2cnc(CC3CC3)n2nc2n1CC[C@H](c1ccc(Cl)cc1)N2` [Example 247] registered an IC50 below 1 µM. The molecule `CC(C)c1ncc2n1NC1=N[C@H](c3ccc(Cl)cc3)CN1C2=O` [Example 136, (2R)-2-(4-Chlorophenyl)-8-isopropyl-2,10-dihydro-3H,5H-diimidazo[2,1-c:5′,1′-f][1,2,4]triazin-5-one] had an IC50 below 1 µM. Then `O=c1c2noc(C3CCOCC3)c2nc2n1CCC(c1cccc(Cl)c1)N2` (stereo not shown) [Example 159], with 10 to 100 µM. The same measure for `COc1ccc([C@@H]2Cn3c(nn4c(C5CCOCC5)ncc4c3=O)N2)cc1` [Example 140]: below 1 µM.

Molecule `O=c1c2cnc(C3CCCC3)n2nc2n1CC[C@H](c1cncc(Cl)c1)N2` [Example 135] gave an IC50 below 1 µM.

Turning to `O=c1c2cnc(C(F)(F)F)n2nc2n1CC[C@H](c1ccc(Cl)cc1)N2` [Example 246], the IC50 is 1 to 10 µM.

Turning to `Cc1ccc(CC2CCn3c(nc4c(cnn4C4CCCC4)c3=O)N2)cn1` (stereo not shown) [Example 42], the IC50 is 1 to 10 µM.
